How the values were obtained:
CD4+ lymphocytes = conditions: daily x5 schedule, low malignant lymphomas; cited from earlier work
[1] = i.v. over 30 minutes once per week for 3 weeks followed by a week's rest; cited from earlier work
heart allografts = experiment: Rat heart-transplantation model (heterotopic heart allograft); format: in vivo; set-up: Leucopenia: dose or concentration left out as unconfirmed; conditions: for Graft rejection: histology graded by ISHT criteria
Procedure: Inbred male LEWIS (LEW) rats and Brown Norway (BN) rats weighing 200-270 g were obtained from “Zentralinstitut fur Versuchstierzucht”, Hannover, Germany. Heterotopic heart transplants were performed using microsurgical techniques as described by Schmid et al., Eur. Surg. […] Postoperatively, all animals were given water and standard rat diet ad libitum.
dFdC was administered subcutaneously once daily for 50 consecutive days beginning immediately after surgery. […] The control group (n=8) received no treatment.
The beating activity of heart allografts was determined by daily palpation. Animals were sacrificed by an overdose of ether whenever cardiac allografts stopped beating and hearts and all vital organs were excised for histology. Multiple sections of the left ventricle of the transplant and of every native organ were fixed in 4% buffered formalin. Paraffin-embedded probes were cut into 5-jim-thick sections and stained with hematoxylin and eosin. Slides were assessed by a pathologist blinded to the study and rejection was graded according to the ISHT criteria.

[2] = daily x5 schedule, 9 mg/m^2 dose level; cited from earlier work
[3] = system: CD4+ and CD8+ lymphocyte subsets; conditions: after repeated applications; cited from earlier work
[4] = system: PHA-activated T-lymphocytes (peripheral blood mononuclear cells); experiment: T-lymphocyte colony formation (lymphocyte colony-growth assay, microagar culture); format: cell-based; conditions: 168 h, PBMC, colonies scored after 7 days, read-out: 50% inhibition of PHA-induced lymphocyte proliferation (colony formation)
Procedure: dFdC is commercially available. […] Aye, Blood 58, 1043 (1981). Therefore, peripheral blood mononuclear cells (PBMC) were cultured with phytohemagglutinin (PHA) and varying concentrations of dFdC in the microagar culture system described by Petzer et al., Blood 78, 2583 (1991). PBMCs were suspended in Iscove s medium containing 20% fetal calf serum and 0.3% agar. Subsequently 250 μl aliquots of this suspension containing 2×10^5 PBMCs were plated in multiwell tissue culture plates. The agar was allowed to solidify at room temperature and then was overlayered with 250 μl medium containing 0.5% PHA and 0.5% 2-mercaptoethanol (1×10^−4 mol/l final concentrations). The cultures were incubated at 37° C. in a fully humidified atmosphere containing 5% CO2 and colonies were scored using an inverted microscope after 7 days of incubation.

For `Nc1nc(Cl)nc2c1ncn2[C@H]1C[C@H](O)[C@@H](CO)O1` [2-chlorodeoxyadenosine], the “Duration of severe suppression of CD4+ lymphocytes” value (CD4+ lymphocytes) is listed as “more than 12 months”.
In the case of `Nc1ccn([C@@H]2O[C@H](CO)[C@@H](O)C2(F)F)c(=O)n1` [dFdC, 2′-deoxy-2′,2′-difluorocytidine], the “Myelosuppression with severe infections (WHO grade III/IV), share of patients” value [1] is listed as “less than 1%”, the Allograft survival (heart allografts; 25 μg/kg/day s.c. once daily for 50 days) is listed as 7.3 days and the Graft rejection (heart allografts; 25 μg/kg/day) is listed as “Grade IV”. The Allograft survival (heart allografts; 50 μg/kg/day s.c. once daily for 50 days) was 9.2 days, the Graft rejection (heart allografts; 50 μg/kg/day) was “Grade IV” and the Allograft survival (heart allografts; 75 μg/kg/day s.c. once daily for 50 days) was 15.7 days. The Graft rejection (heart allografts; 75 μg/kg/day) was “Grade IV”, the Allograft survival (heart allografts; 100 μg/kg/day s.c. once daily for 50 days) was 152.8 days and the Graft rejection (heart allografts; 100 μg/kg/day) was “Grade IV”. The Allograft survival (heart allografts; 125 μg/kg/day s.c. once daily for 50 days) was 144.2 days, the Graft rejection (heart allografts; 125 μg/kg/day) was “Grade IV” and the Allograft survival (heart allografts; 150 μg/kg/day s.c. once daily for 50 days) was 41.5 days. The Graft rejection (heart allografts; 150 μg/kg/day) was “None”, the Allograft survival (heart allografts; 300 μg/kg/day s.c. once daily for 50 days) was 16.0 days and the Graft rejection (heart allografts; 300 μg/kg/day) was “None”. The Allograft survival (heart allografts; 600 μg/kg/day s.c. once daily for 50 days) was 10.5 days, the Graft rejection (heart allografts; 600 μg/kg/day) was “None” and the Allograft survival (heart allografts; 6000 μg/kg/day s.c. once daily for 50 days) was 4.0 days. For the same compound, the Graft rejection (heart allografts; 6000 μg/kg/day) was “None”, the “Graft survival compared to untreated controls” value (heart allografts; all animals given between 75 and 600 μg/kg BW) was “prolonged” and the Leucopenia (heart allografts; all animals of all dose groups) was “Dose-dependent leucopenia occurred in all animals of all groups”. For the same compound, the Reversibility of leucopenia (heart allografts; animals given less than 150 μg/kg) was “reversible”, the “Toxicity at high dose” value (heart allografts; more than 125 μg/kg BW) was “overimmunosuppression and irreversible myelotoxicity” and the Nonhaematologic toxicity [2] was “significant amount of nonhaematologic toxicity including sporadic fever and severe hypertension”. For the same compound, the “Reduction of CD4+ and CD8+ lymphocyte subsets” value [3] was “no significant reduction” and the IC50 [4] was 3.25 ± 0.9 nM.

Source: US6555518B1, “Gemcitabine as an immunosuppressive pharmaceutical agent” (Eli Lilly and Company, priority 1998, dated 2003)
